For one assay, the target named is FGFR3 (Homo sapiens, UniProt P22607). The following applies: cited from earlier work.
Assay [1] has as its system OECs and astrocytes. The following applies: previous work; cited from earlier work.
The test system of assay [2] is OECs and astrocytes. As to the kind of experiment: OEC:astrocyte confrontation assay (boundary formation). Particulars: 2 days of treatment. It is filed as cell-based, Sprague-Dawley rat. Also on record: key to graded score of boundary formation: mingling (−); partial boundary (+/−); complete boundary (++). On the procedure:
All primary neural cultures were generated from Sprague-Dawley rat pups of either sex. As described previously^10,37, purified type 1 astrocytes were prepared by digesting cortices (dissected from 1-day old Sprague Dawley (SD) rats) in 1.33% (w/v) collagenase (Sigma-Aldrich, Gillingham, UK), seeding (˜2×10^7 cells per 75 cm^2 flask) and culturing the cells in poly-L-lysine (PLL, 13.3 μg/ml, Sigma-Aldrich, Gillingham, UK) coated 75 cm2 flasks for 10-12 days. The cells were maintained in DMEM (Invitrogen, Paisley, Scotland) supplemented with 10% (v/v) foetal bovine serum (FBS) (Sigma-Aldrich, Gillingham, UK) and L-glutamine (2 mM, Sigma-Aldrich, Gillingham, UK) (DMEM-FBS). Confluent flasks were shaken on a rotary platform overnight at 37° C. to remove contaminating oligodendrocyte precursor cells. The remaining cells were 85-95% type 1 astrocytes as identified by labelling for glial fibrillary acidic protein (GFAP), an astrocyte cell specific marker.
OECs were isolated from the olfactory bulb of 7 day old SD rat pups and purified using magnetic nanoparticles (STEMCELL Technologies, UK) pre-bound with the p75^NTR antibody (mouse IgG1, Abcam, Cambridge, UK)^30. The cells were grown in low glucose DMEM with 5% (v/v) FBS and 2 mM L-glutamine and further supplemented with DMEM-BS (Bottenstein, 1979), FGF2 (25 ng/ml, Peprotech, London UK), heregulin β-1 (50 ng/ml, R&D Systems, Oxon, UK), forskolin (5×10^-7 M Sigma-Aldrich, Gillingham, UK) and astrocyte conditioned media (ACM) (1:5, fresh serum-free media taken after incubation with a confluent astrocyte monolayer for 48 h)^18, 37.
Confrontation assays were performed as described by Wilby et al. (1999) and Lakatos et al. (2000) with some modifications^10,48. Briefly, 70 μl containing 10,000 OECs or SCs were seeded into one well of a silicon Ibidi culture insert on a PLL-coated glass coverslip (Ibidi GmbH, Munich, Germany). Into the opposing, parallel well, 10,000 astrocytes were seeded. Cells were allowed to attach for 1 h before careful removal of the insert followed by a wash with DMEM-FBS to remove unattached cells. Cultures were maintained in DMEM-FBS and allowed to grow towards each other over a period of 5-7 days, allowing time for cells to make contact and interact^10. In some experiments, modified heparins or blocking antibodies were added to the cultures after the cells had contacted each other. Cultures were then immunolabelled using anti-GFAP for astrocytes (1:500; anti-rabbit (Dako, Ely, UK)) and anti-p75NTR for OECs and SCs (1:1; IgG1; hybridoma supernatant^49. Fluorescent images were captured using an Olympus BX51 fluorescent microscope and Image-Pro software. Using Adobe Photoshop Elements 7.0, a 300 μm line was drawn along the interface between astrocytes and either OECs or SCs. The numbers of OECs or SCs crossing the cell:cell boundary were counted and averaged over five randomly chosen fields. Experiments were repeated at least three times.
Modified heparins were produced semisynthetically by chemical modification (selective desulfation) of heparin as described in Example 1. These structurally distinct, model “HS-mimetic” polysaccharides^50 are useful tools for investigating structure-activity relationships of HS^15-17,31. Heparins were added to confrontation assays at 10 μg/ml at the stage when cells made contact (day 0) and treatment was repeated on day 2. Cultures were fixed and stained as described above on day 3. […]
Purified OECs were seeded at a density of 5000 cells/100 μl into one chamber of an Ibidi culture insert (Ibidi GmbH, Munich, Germany) sealed onto a PLL coated coverslip in a well of a 24-well plate. Cells were cultured in defined OEC medium for 24 h, after which, the medium was replaced with low serum (2% (v/v) FBS) OEC medium containing 1 μM siRNA. siRNA sequences were obtained from Dharmacon/Thermo Scientific (Sulf 1: E-093746-00-0005; Sulf2: E-093673-00-0005; non-targeting: D-001910-01-05; Thermo Fisher Scientific Inc, IL, USA). […]

The test system of assay [3] is normal human plasma. Kind of assay: PT assay. Type of assay: biochemical. Particulars: tested up to 100 ug/ml. How it is done:
(§1) APTT and PT assays were performed using a Axis Shield Thrombotrack 1 instrument using normal human plasma, Pathrombin SL reagent and Thromborel S (all from Axis Shield) reagents according to manufacturers instructions.
(§2) For all assays, heparins and polysaccharides were tested up to 100 ug/ml.

Assay [4] addresses T1, Factor Xa (Homo sapiens).
T1 construct: purchased Chromogenix
Kind of assay: Factor Xa colorimetric substrate assay with antithrombin III. Particulars: tested up to 100 ug/ml. It is filed as biochemical. How it is done:
(§3) Factor Xa and Factor II activity was measured using a colorimetric substrate assay as previously described^17. Briefly, in a 96 well ELISA plate, antithrombin III (American Diagnostica, 30 mIU/ml final concentration) was incubated with heparin or polysaccharide fractions in 0.9% NaCl at 37° C. for 2 minutes. Factor IIa (Sigma, 15 mU/ml final concentration) or Factor Xa (Thermo Scientific, 15 mU/ml final concentration) was added and the samples incubated for a further 1 minute at 37° C. Factor Xa Chromogenic substrate (Sigma, 240 uM final concentration) was added to the samples and incubated for 10 minutes at 37° C. The reaction was stopped with glacial acetic acid (Sigma, 25% final concentration). Colour change of the substrate was measured at 405 nm.
as §2

The next assay concerns the target T2, Factor IIa (Homo sapiens, UniProt P00734+P01008).
T2 construct: Factor IIa (Sigma, 15 mU/ml final concentration); purchased Sigma (Factor IIa); American Diagnostica (antithrombin III)
Kind of assay: Factor IIa colorimetric substrate assay with antithrombin III. Type of assay: biochemical. The following applies: tested up to 100 ug/ml. On the procedure: as §3, §2

The subject of assay [5] is normal human plasma. Kind of assay: APTT assay. It is filed as biochemical. The following applies: tested up to 100 ug/ml. How it is done:
as §1, §2

The conditions of assay [6]: Celsus Labs lot PH-42800; cited from earlier work.
The test system of assay [7] is T1, Factor Xa (Homo sapiens). As to the kind of experiment: Anti-factor Xa activity against PIMH standard, Coatest Heparin test kit. Particulars: compared with standard heparin (HEP1). Type of assay: biochemical. On the procedure:
Anti Factor Xa activity can be measured against a PIMH standard of known activity (Sigma, UK) using a diagnostic grade Coatest Heparin test kit (Chromogenix, MA), adapted to a 96-well plate format, reading A405 (Polarstar plate reader (BMG LabTechnologies, U.K.))^17.
The anti-factor Xa activity was measured against a PIMH standard of known activity using a diagnostic grade Coatest Heparin test kit (Chromogenix, MA), adapted to a 96-well plate format, reading A405.

Values joined by “and” are separate entries in the source; they are usually repeats but may differ in a detail not shown here. Equal values may be shown once. “Also recorded” adds a separate entry of the source. Read-outs that look alike come from different tables or passages of the source.

T1 sequence (P01008 33-464): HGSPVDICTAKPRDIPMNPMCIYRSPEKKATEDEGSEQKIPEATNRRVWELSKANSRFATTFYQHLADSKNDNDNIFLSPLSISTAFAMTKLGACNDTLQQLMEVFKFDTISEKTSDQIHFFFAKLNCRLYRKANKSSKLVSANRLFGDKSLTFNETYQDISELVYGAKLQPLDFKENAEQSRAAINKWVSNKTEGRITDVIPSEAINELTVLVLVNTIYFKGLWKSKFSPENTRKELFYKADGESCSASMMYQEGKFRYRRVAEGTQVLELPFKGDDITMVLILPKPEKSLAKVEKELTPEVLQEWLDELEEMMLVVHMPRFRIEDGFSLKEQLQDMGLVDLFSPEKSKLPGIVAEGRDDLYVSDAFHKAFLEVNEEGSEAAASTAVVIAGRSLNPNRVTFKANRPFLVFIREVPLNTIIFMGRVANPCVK
FGFR3, sequence (P22607 23-806, species assumed): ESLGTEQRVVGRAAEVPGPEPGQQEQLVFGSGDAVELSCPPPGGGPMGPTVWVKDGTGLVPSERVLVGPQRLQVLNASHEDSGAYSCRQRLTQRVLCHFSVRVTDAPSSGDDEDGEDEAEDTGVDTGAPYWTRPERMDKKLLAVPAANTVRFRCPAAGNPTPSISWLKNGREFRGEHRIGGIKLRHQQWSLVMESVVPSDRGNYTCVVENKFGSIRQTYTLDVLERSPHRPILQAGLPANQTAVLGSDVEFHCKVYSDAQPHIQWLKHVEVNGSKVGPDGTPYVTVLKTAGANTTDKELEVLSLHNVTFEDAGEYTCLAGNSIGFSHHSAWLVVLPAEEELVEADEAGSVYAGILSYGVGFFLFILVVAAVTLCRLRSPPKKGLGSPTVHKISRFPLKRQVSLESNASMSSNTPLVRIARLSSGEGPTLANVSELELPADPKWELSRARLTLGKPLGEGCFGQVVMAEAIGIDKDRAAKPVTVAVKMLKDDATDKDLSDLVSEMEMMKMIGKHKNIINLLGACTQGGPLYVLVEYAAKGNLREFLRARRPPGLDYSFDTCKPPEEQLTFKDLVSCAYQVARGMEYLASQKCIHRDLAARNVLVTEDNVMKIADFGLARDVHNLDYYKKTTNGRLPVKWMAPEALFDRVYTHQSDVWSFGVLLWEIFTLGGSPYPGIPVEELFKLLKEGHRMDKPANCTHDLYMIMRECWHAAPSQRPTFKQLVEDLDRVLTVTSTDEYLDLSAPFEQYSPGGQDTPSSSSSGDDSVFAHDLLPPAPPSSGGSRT

Regarding `Cc1c[nH]c(/C=C2\C(=O)Nc3ccccc32)c1CCC(=O)O` [SU5402], the “inhibition of FGFR3” value on FGFR3 was “effectively inhibit FGFR3”. The “SCM-induced boundary formation in OEC/astrocyte cultures” value in the assay on OECs and astrocytes [1] is “disrupts SCM-induced boundary formation”.

Turning to Heparin [reference compound], in the assay on OECs and astrocytes [2] (10 μg/ml), the “graded score of boundary formation” value is recorded as “++”. The “IC50 PT” value in the assay with normal human plasma [3] is 41.4 µg/mL and 41.4005 µg/mL. The “boundary formation between OECs and astrocytes” value with OECs and astrocytes [1] was “induce a boundary between OECs and astrocytes”. In addition, the “IC50 Factor Xa” value against Factor Xa (Homo sapiens) [4] was 0.9 µg/mL and 0.9295 µg/mL. Besides, the “IC50 Factor IIa” value on Factor IIa is 1.0 µg/mL and 1.0326 µg/mL. Further, the “IC50 APTT” value in the assay with normal human plasma [5] was 1.2 µg/mL and 1.2461 µg/mL.

PIMH [HEP1, reference compound]: the “boundary formation between OECs and astrocytes” value with OECs and astrocytes [2] (modified heparins 10 μg/ml) was “induced boundaries between OECs and astrocytes; also recorded: induced the strongest boundaries”. The anticoagulant activity in assay [6] was 201 IU/mg. In the assay with Factor Xa (Homo sapiens) [7], the “Anticoagulant activity (anti-Xa activity)” value is reported as 100%.

Values taken from patent US9889150B2, “Agents for the prevention and/or treatment of central nervous system damage” (The University Of Liverpool, priority 2012, dated 2018).
